Laboratory results from article PMC6162817 (Toxins, 2018).
Where “and” joins values, the source holds several entries; their conditions need not be identical. Equal values may be shown once. Residues, ends and D or L forms follow the SMILES beside them. No end group written: not given here.

How the values were obtained:
[1] = target: RTA depurination activity on yeast ribosomes (Ricinus communis, UniProt P02879); assay: biochemical; format: biochemical; conditions: for IC50: Yeast Ribosome IC50
[2] = target: RTA depurination activity on rat liver ribosomes (Ricinus communis, UniProt P02879); assay: biochemical; format: biochemical
[3] = target: RTA–yeast ribosome interaction (Ricinus communis, UniProt P02879); format: binding

Q: How did the IC50 [1] turn out when DDDMGFGLFD [P10] was run?
A: Its IC50 is 7.9 ± 1.7 µM.

Q: And the IC50 [2]?
A: The IC50 was 83 ± 18 µM.

Q: How did the IC50 [1] turn out when DDMGFGLFD [P9] was run?
A: Its IC50 is 15 ± 1.5 µM.

Q: And the IC50 [2]?
A: Its IC50 is 142 ± 61 µM.

Q: `CC(C)C[C@H](NC(=O)CN)C(=O)N[C@@H](Cc1ccccc1)C(=O)N[C@@H](CC(=O)O)C(=O)O` [P4, G112LFD115] (H-GLFD-OH) was tested. Which IC50 [1] did it give?
A: Its IC50 is 102 ± 45 µM.

Q: For SDDDMGFGLFD [P11], which “Imax (maximal inhibition), yeast ribosome” value [1] is on record?
A: The value was 90% and 89.7 ± 3.0%.

Q: What about the IC50 [1] of the same compound?
A: Its IC50 is 5 µM and 4.7 µM.

Q: What about the IC50 [2] of the same compound?
A: The IC50 was 30.8 ± 6.3 µM.

Q: And the “Imax (maximal inhibition), rat ribosome” value [2]?
A: Its value is 90% and 89.4 ± 4.2%.

Q: With GFGLFD [P6, G110FGLFD115] as the compound, how does the IC50 [1] read?
A: Its IC50 is 63 ± 13 µM.

Q: And the “inhibition of ribosome binding to RTA” value [3]?
A: The value was < 100%.

Q: Which IC50 [1] does the source give for MGFGLFD [P7, M109GFGLFD115] here?
A: Its IC50 is 34 ± 9.5 µM.

Q: How did the IC50 [1] turn out when FGLFD [P5, F111GLFD115] was run?
A: The IC50 was 121 ± 44 µM.

Q: For DMGFGLFD [P8, D108MGFGLFD115], which IC50 [1] is on record?
A: The IC50 was 23 ± 4.4 µM.

Q: What about the IC50 [2] of the same compound?
A: Its IC50 is 267 ± 80 µM.
